The values that follow come from US5426099A, “Process for inducing analgesia, peptides and therapeutic compositions” (Rutgers, The State University of New Jersey, priority 1991, dated 1995).

Entries after “also recorded” stand apart in the source; their conditions may differ. Where no end group is shown, it is not given here. Some results are limits rather than exact numbers.

Assay [1] has as its system periaqueductal gray matter. The following applies: administered to rats directly into the periaqueductal gray matter; Sullivan and Pert 1981; cited from earlier work.
In another assay the test system is lumbo-sacral spinal cord. The conditions noted are these: administered to rats to the intrathecal space of the lumbo-sacral spinal cord; Komisaruk et al. 1988; cited from earlier work.
The conditions of assay [2]: intrathecal injection; Cridland and Henry 1988; cited from earlier work.
For assay [3] the following is noted: reported; cited from earlier work.
For a further assay, the system named is systemic. Also noted: key to cardiac output / blood pressure / arterial blood flow: + = Stimulation; - = Inhibition. The conditions noted are these: Said, cited from earlier work.
For a further assay, the system named is pancreatic cells. Also noted: key: + = Stimulation; - = Inhibition. The following applies: Robberecht+ 76; cited from earlier work.
A further assay has as its system stomach. The following applies: Said, Mutt+ 77; cited from earlier work.
For the next assay, the system named is trachea. The conditions noted are these: Said, Mutt+ 77; cited from earlier work.
Another assay has as its system colon. Also noted: key: + = Stimulation; - = Inhibition. The following applies: cited from earlier work.
Another assay deals with brain (amygdala). Details: key: + = Stimulation; - = Inhibition. The conditions noted are these: Quik+ 79; cited from earlier work.
The subject of another assay is mononuclear cells. Also noted: key: + = Stimulation; - = Inhibition. The following applies: Ottaway+ 83; cited from earlier work.
A further assay deals with pit. tumor cells. The following applies: Westendorf+ 83; cited from earlier work.
The test system of a further assay is eye. Also noted: key: + = Stimulation; - = Inhibition. The conditions noted are these: cited from earlier work.
For a further assay, the system named is arterial cells. Also noted: key: + = Stimulation; - = Inhibition. The conditions noted are these: Huang+ 84; cited from earlier work.
The test system of the next assay is cortical slices. Also noted: key: + = Stimulation; - = Inhibition. The following applies: Magistretti+ 84; cited from earlier work.
The next assay relates to brain arteries. The conditions noted are these: Suzuki+ 84; cited from earlier work.
Another assay deals with bronchi. The following applies: Palmer+ 86; cited from earlier work.
In a further assay the test system is Schwann cell. The conditions noted are these: Evans+; cited from earlier work.
Details of assay [4]: key: + = Stimulation; - = Inhibition. The conditions noted are these: Pandol+ 86; cited from earlier work.
For a further assay, the system named is gastric mucosa. Also noted: key: + = Stimulation; - = Inhibition. The following applies: Sutliff+ 86; cited from earlier work.
Another assay relates to skin. Also noted: key: + = Stimulation; - = Inhibition. The following applies: Yanaihara+ 87; cited from earlier work.
For another assay, the system named is vagina. Details: key: + = Stimulation; - = Inhibition. The conditions noted are these: Fahrenkrug+ 88; cited from earlier work.
A further assay has as its system colonic cells. Details: key: + = Stimulation; - = Inhibition. The conditions noted are these: McCabe+ 88; cited from earlier work.
The next assay has as its system genital tract. Also noted: key: + = Stimulation; - = Inhibition. The conditions noted are these: Fahrenkrug+ 88; cited from earlier work.
In a further assay the test system is heart. Details: key: + = Stimulation; - = Inhibition. The conditions noted are these: Smitherman+ 88; cited from earlier work.
A further assay concerns kidney. Details: key: + = Stimulation; - = Inhibition. The conditions noted are these: Porter+ 88; cited from earlier work.
The subject of a further assay is spinal cord cult. Also noted: key: + = Stimulation; - = Inhibition. The following applies: Brenneman 88; cited from earlier work.
Another assay relates to brain (IV vent.). Also noted: key: + = Stimulation; - = Inhibition. The following applies: Drucker-Colin+ 88; cited from earlier work.
Another assay concerns dienceph. cells. Also noted: key: + = Stimulation; - = Inhibition. The conditions noted are these: Reichlin 88; cited from earlier work.
The next assay relates to pancreatic acini. Details: key: + = Stimulation; - = Inhibition. The following applies: Musso+ 88; cited from earlier work.
The next assay concerns ovarian granulosa. Also noted: key: + = Stimulation; - = Inhibition. The following applies: cited from earlier work.
The test system of a further assay is uterus. The following applies: Morris+ 89; cited from earlier work.
The subject of assay [5] is female Sprague-Dawley rats. The assay can be described thus: Tail-flick latency to radiant heat.
In assay [6] the test system is female Sprague-Dawley rats. The assay can be described thus: Vocalization threshold to tail shock. Type of assay: in vivo, rat. The conditions noted are these: intrathecal; for elevation in vocalization threshold: 30 min. postinjection; for vocalization threshold compared with saline group (significance): sulfate. The text has this:
Electrical stimulation (100 millisecond trains of 60 Hz square waveform at three-second intervals ranging from 0.01 to 0.4 mA in 0.01 mA increments) is applied (under computer control using a Commodore 64C computer and a Coulbourn constant current stimulator) to the surface of the tail via two lengths of blunt 18-ga stainless steel tubing coated with conductive gel (Spectra 360 Electrode Gel; Parker Laboratories Inc., Orange, N.J. 07050) and taped to the midsection of the tail 2 cm apart, parallel to the axis of the tail. An ascending/descending method of limits is used to estimate the threshold (in mA) to induce vocalization. In this method, an observer records whether or not vocalization occurs in response to each shock. If an animal vocalizes at a particular current intensity, the current intensity is then reduced stepwise until a shock no longer elicits a vocalization response. Then the current is increased stepwise until the animal again vocalizes, and so on, until all mA values for 6 such inversions are obtained. The vocalization threshold estimate is the mean of these 6 values.
The vocalization threshold to tail shock increased by 70% over baseline (pre-injection) levels by the first minute after the intrathecal injection of VIP 11-28 (molar quantity equivalent to 25 mcg VIP 11-28, hereafter referred to as 25 mcge [microgram equivalents]).
Female Sprague-Dawley rats weighing 250 g are used in the testing. The rats are ovariectomized and implanted surgically through the cisterna magna with an intrathecal catheter (i.t.) (PE 10 polyethylene tubing 7.5 cm length) at least 1 week before testing.

For another assay, the system named is smooth muscle. The assay can be described thus: Smooth muscle relaxant action.
Assay [7] deals with female Sprague-Dawley rats. The assay can be described thus: Vocalization threshold to tail shock. The format is in vivo, rat. The following applies: intravenous, 3 mg.

Consider `CC[C@H](C)[C@H](NC(=O)[C@H](CO)NC(=O)[C@H](CC(N)=O)NC(=O)[C@H](CC(C)C)NC(=O)[C@H](Cc1ccc(O)cc1)NC(=O)[C@H](CCCCN)NC(=O)[C@H](CCCCN)NC(=O)[C@@H](NC(=O)[C@H](C)NC(=O)[C@H](CCSC)NC(=O)[C@H](CCC(N)=O)NC(=O)[C@H](CCCCN)NC(=O)[C@H](CCCNC(=N)N)NC(=O)[C@H](CC(C)C)NC(=O)[C@H](CCCNC(=N)N)NC(=O)[C@@H](NC(=O)[C@H](Cc1ccc(O)cc1)NC(=O)[C@H](CC(N)=O)NC(=O)[C@H](CC(=O)O)NC(=O)[C@@H](NC(=O)[C@H](Cc1ccccc1)NC(=O)[C@@H](NC(=O)[C@H](C)NC(=O)[C@H](CC(=O)O)NC(=O)[C@H](CO)NC(=O)[C@@H](N)Cc1c[nH]cn1)C(C)C)[C@@H](C)O)[C@@H](C)O)C(C)C)C(=O)N[C@@H](CC(C)C)C(=O)N[C@@H](CC(N)=O)C(N)=O` [VIP 1-28, NH--His--Ser--Asp--Ala--Val--Phe--Thr--Asp--Asn--Tyr--Thr--Arg--Leu--Arg--Lys--Gln--Met--Ala--Val--Lys--Lys--Tyr--Leu--Asn--Ser--Ile--Leu--Asn--Amide], for which the “analgesia through the central nervous system” value (in [1]; in the assay on lumbo-sacral spinal cord) was “induced analgesia” throughout. Further, the “reaction time on a nociceptive test” value in assay [2] was “reduced reaction time”. The systemic vasodilator activity entry in assay [3] is on record as “has systemic vasodilator activity”. Moreover, in the assay on systemic (Mutt 75), the cardiac output entry is “+”. Besides, the hyperglycemia entry in the assay with systemic (Mutt 75) is listed as “hyperglycemia”. Also, the respiratory stimulation result in the assay on systemic (Mutt 75) is on record as “respiratory stimulation”. In addition, in the assay with systemic (Mutt+ 77), the arterial blood flow result is listed as “+”. For the same compound, the blood pressure entry with systemic (Mutt+ 77) is “-”. Moreover, the “cyclic AMP” value in the assay on pancreatic cells, in the assay with brain (amygdala) and in the assay with mononuclear cells was “+” each time. For the same compound, the smooth muscle relaxation result with stomach and in the assay with trachea was “smooth muscle relaxation” throughout. Also, the smooth muscle motility entry with colon (Said, Mutt+ 77) was “+”. For the same compound, in the assay on colon (Waldman+ 77), the water flow entry is reported as “+”. Further, the “ACTH, endorphin release” value in the assay on pit. tumor cells was “ACTH, endorphin release”. The tear secretion result in the assay with eye (Gilbard+ 88) is reported as “+”. The intraocular pressure result with eye (Mittag+ 87) was “-”. In addition, the adenylate cyclase entry in the assay on arterial cells is “+”. The glycogenolypis result in the assay on cortical slices is reported as “+”. Besides, in the assay with brain arteries, the vasodilation is listed as 30. The bronchodilation result in the assay with bronchi is “bronchodilation”. Also, in the assay with Schwann cell, the neuronal hyperpolarization entry is “neuronal hyperpolarization”. For the same compound, the amylase release result (in assay [4]; in the assay with pancreatic acini) was “+” each time. The “cyclic Amp” value in the assay with gastric mucosa is given as “+”. Moreover, in the assay with gastric mucosa, the pepsinogen secretion entry is “+”. Also, the hair growth entry in the assay with skin was “+”. Further, in the assay on vagina, the lubrication entry is “+”. Moreover, the chloride secretion result in the assay on colonic cells is reported as “+”. Further, the blood flow entry in the assay with genital tract and with heart was “+” each time. The renin secretion rate result with kidney is “+”. Besides, in the assay on spinal cord cult., the neuronal survival entry is “+”. For the same compound, the REM sleep result in the assay with brain (IV vent.) is on record as “+”. Also, the somatostatin release entry in the assay on dienceph. cells is recorded as “+”. Also, the androgen secretion entry in the assay on ovarian granulosa (Johnson 88) was “+”. Also, the progesterone secretion result with ovarian granulosa (Johnson+ 88) is “+”. In the assay on uterus, the arterial relaxation entry is reported as “arterial relaxation”. The “TFL elevation compared with saline group (significance)” value in assay [5] (intrathecal, VIP 1-28 group) is “approached, but did not reach, significance”.

With `CN1CC[C@]23c4c5ccc(O)c4O[C@H]2[C@@H](O)C=C[C@H]3[C@H]1C5.O=S(=O)(O)O` [morphine sulfate], the “elevation in vocalization threshold” value in [6] (25 mcg) was found to be 60%. For the same compound, the “vocalization threshold compared with saline group (significance)” value in assay [6] (25 mcg, p<0.05, listed as morphine) is “significantly greater than the saline group”; in assay [6] (25 mcg, p<0.05), “significant elevation in vocalization threshold over the saline group at 20 and 30 min. post injection”. For the same compound, the “TFL compared with other groups (significance)” value was “significantly greater than saline at 15 min. and all other groups except morphine 25 mcg at all points from 30-60 min” in [5] (intrathecal, 5 mcg); “significantly greater than all other groups at all points from 5-60 minutes” in assay [5] (intrathecal, 25 mcg, p<0.05, two-tailed, Duncan test).

As for “TRLRKQMAVKKYLNSILN-NH2 [VIP 11-28, NH--Thr--Arg--Leu--Arg--Lys--Gln--Met--Ala--Val--Lys--Lys--Tyr--Leu--Asn--Ser--Ile--Leu--Asn--Amide]”, the “elevation in vocalization threshold” value in assay [6] (25 mcge) stood at 170%. Further, the “vocalization threshold to tail shock, increase over baseline (pre-injection) levels” value in [6] (25 mcge, first minute after injection, n=10) is 70%. For the same compound, in assay [6] (25 mcge, vocalization threshold), the “persistence of the significant threshold elevating effect” value was not below 60 min. Besides, the “vocalization threshold elevation compared with 25 mcg morphine sulfate (significance)” value in assay [6] (25 mcge, at 1-15, 30 and 60 min. postinjection, p<0.05) is “significantly greater than both the morphine and the saline groups; also recorded: significantly more effective in elevating vocalization thresholds than 25 mcg morphine sulfate”. Further, the “vocalization threshold compared with saline control group (significance)” value in assay [6] (25 mcge, p<0.05, 2-tailed, multiple t-tests) is listed as “elevated over the saline control group levels at each test for the duration of the 60 min. test period”. For the same compound, the “persistence of threshold elevating effect longer than analgesia produced by VIP 1-28” value in assay [6] (vocalization threshold) is reported as “at least 30 min”. In addition, the “onset of analgesia post i.t. injection” value in [6] (vocalization threshold test) came out at 1 min. In the assay on smooth muscle, the “smooth muscle relaxant action” value is listed as “has shown smooth muscle relaxant action”. Further, in assay [7], the “time of maximum vocalization threshold after injection” value is 1 min and the “vocalization threshold compared with saline (significance)” value is listed as “approached, but did not reach, significance; also recorded: approaching, but not attaining, significance”. Moreover, the “TFL change compared with saline group (significance)” value in assay [5] (intrathecal, 25 mcge, p<0.05, two-tailed, multiple t-test) is on record as “significantly greater than the saline group”. Moreover, the “mean TFL elevation, maximum, greater than the preinjection baseline level” value in assay [5] (intravenous (jugular vein catheter), 3 mg, 1 minute after injection, n=10) amounted to 80%. Also, in assay [5] (intravenous, 3 mg, p<0.05, 2-tailed, Scheffe test), the “TFL compared with saline control group (significance)” value is on record as “significantly greater effect than saline”.
